Measurements as given in US10611730B2, “Benzimidazolone and benzothiazolone compounds and their use as AMPA receptor modulators” (Janssen Pharmaceutica NV, priority 2015, dated 2020).

Each compound was assayed against TARP γ8 dependent AMPA receptor (GluA1o-g8 fusion channel) (Homo sapiens (Human), UniProt P42261+Q8WXS5) (assay: Calcium flux assay (FLIPR), HEK293 cells expressing GRIA1o-CACNG8 fusion). Details: inhibition of calcium flux after 15 μM glutamate, read-out: GluR1-γ8 pIC50 (converted).
Assay type: cell-based
How it was run: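 Stable HEK293 clone expressing GluA1o-γ8 fusion (1:1 stoichiometry), loaded with Calcium-5/6 dye plus test compound; glutamate-evoked fluorescence normalized to control wells. Concentration-response fitted to four-parameter logistic, midpoint taken as inhibitory potency.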

TARP γ8 dependent AMPA receptor (GluA1o-g8 fusion channel), sequence (P42261 other isoform, or with tags, fused parts or gaps): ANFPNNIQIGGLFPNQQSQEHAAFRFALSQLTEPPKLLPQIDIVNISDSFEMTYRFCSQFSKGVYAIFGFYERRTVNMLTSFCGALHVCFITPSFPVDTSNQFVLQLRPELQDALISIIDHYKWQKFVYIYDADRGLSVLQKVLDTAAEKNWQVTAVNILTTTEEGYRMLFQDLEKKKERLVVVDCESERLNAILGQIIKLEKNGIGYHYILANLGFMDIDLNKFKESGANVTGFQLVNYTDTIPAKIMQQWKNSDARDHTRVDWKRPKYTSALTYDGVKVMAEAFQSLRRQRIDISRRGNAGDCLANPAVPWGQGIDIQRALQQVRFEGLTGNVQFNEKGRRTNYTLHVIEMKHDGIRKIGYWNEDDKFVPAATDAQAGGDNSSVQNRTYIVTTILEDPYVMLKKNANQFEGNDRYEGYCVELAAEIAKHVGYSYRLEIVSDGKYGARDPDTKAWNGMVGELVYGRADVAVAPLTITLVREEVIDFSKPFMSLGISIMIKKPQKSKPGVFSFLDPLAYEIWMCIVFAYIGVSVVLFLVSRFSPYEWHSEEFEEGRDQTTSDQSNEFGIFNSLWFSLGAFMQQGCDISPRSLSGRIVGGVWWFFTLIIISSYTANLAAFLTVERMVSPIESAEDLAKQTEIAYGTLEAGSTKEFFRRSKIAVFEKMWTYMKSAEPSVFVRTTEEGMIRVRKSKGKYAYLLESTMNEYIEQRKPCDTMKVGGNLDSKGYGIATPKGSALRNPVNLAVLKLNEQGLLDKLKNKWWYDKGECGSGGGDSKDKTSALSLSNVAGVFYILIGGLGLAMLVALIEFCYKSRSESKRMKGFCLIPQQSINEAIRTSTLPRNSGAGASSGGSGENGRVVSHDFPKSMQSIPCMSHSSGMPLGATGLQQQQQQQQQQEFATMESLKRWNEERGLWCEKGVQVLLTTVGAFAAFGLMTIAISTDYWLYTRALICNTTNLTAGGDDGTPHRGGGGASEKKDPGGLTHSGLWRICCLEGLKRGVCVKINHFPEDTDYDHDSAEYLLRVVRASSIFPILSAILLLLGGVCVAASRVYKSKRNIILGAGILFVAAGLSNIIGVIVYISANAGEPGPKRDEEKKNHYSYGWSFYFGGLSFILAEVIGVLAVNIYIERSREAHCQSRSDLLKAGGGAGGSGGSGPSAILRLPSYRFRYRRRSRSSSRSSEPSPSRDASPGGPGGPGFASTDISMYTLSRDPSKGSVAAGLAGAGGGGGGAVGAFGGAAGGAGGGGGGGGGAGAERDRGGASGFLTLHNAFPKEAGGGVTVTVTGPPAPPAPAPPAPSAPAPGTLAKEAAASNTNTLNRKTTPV

| IC50 [nM] | SMILES |
| --- | --- |
| 20 | N#CCc1cccc(-c2ccc(F)cc2)c1-c1ccc2[nH]c(=O)[nH]c2c1 [Example 135, 2-[3-(4-Fluorophenyl)-2-(2-oxo-1,3-dihydrobenzimidazol-5-yl)phenyl]acetonitrile] |
| 158 | N#CCc1cccc(-c2ccccc2F)c1-c1ccc2[nH]c(=O)[nH]c2c1 [Example 136, 2-[3-(2-Fluorophenyl)-2-(2-oxo-1,3-dihydrobenzimidazol-5-yl)phenyl]acetonitrile] |
| 316 | COc1ccc(-c2cccc(CC#N)c2-c2ccc3[nH]c(=O)[nH]c3c2)cc1 [Example 137, 2-[3-(4-Methoxyphenyl)-2-(2-oxo-1,3-dihydrobenzimidazol-5-yl)phenyl]acetonitrile] |
| 100 | N#CCc1cccc(C2CC2)c1-c1ccc2[nH]c(=O)[nH]c2c1 [Example 138, 2-[3-Cyclopropyl-2-(2-oxo-1,3-dihydrobenzimidazol-5-yl)phenyl]acetonitrile] |
| 251 | O=c1[nH]c2ccc(-c3c(Cl)ccc(CN4CCOCC4)c3Cl)cc2[nH]1 [Example 139, 5-[2,6-Dichloro-3-(morpholinomethyl)phenyl]-1,3-dihydrobenzimidazol-2-one] |
| 398 | O=c1[nH]c2ccc(-c3c(Cl)ccc(CN4CCCCC4)c3Cl)cc2[nH]1 [Example 140, 5-[2,6-Dichloro-3-(1-piperidylmethyl)phenyl]-1,3-dihydrobenzimidazol-2-one] |
| 1000 | O=c1[nH]c2ccc(-c3cccc(CN4CCOCC4)c3Cl)cc2[nH]1 [Example 141, 5-[2-Chloro-3-(morpholinomethyl)phenyl]-1,3-dihydrobenzimidazol-2-one] |
| 631 | O=c1[nH]c2ccc(-c3cccc(CN4CCCCC4)c3Cl)cc2[nH]1 [Example 142, 5-[2-Chloro-3-(1-piperidylmethyl)phenyl]-1,3-dihydrobenzimidazol-2-one] |
| 100 | CC1(C)CN(Cc2cccc(-c3ccc4[nH]c(=O)[nH]c4c3)c2Cl)CCO1 [Example 143, 5-[2-Chloro-3-[(2,2-dimethylmorpholin-4-yl)methyl]phenyl]-1,3-dihydrobenzimidazol-2-one] |
| 1000 | O=c1[nH]c2ccc(-c3c(Cl)cccc3CN3CCOCC3)cc2[nH]1 [Example 145, 5-[2-Chloro-6-(morpholinomethyl)phenyl]-1,3-dihydrobenzimidazol-2-one] |
| 7940 | CN1CCN(Cc2cccc(Cl)c2-c2ccc3[nH]c(=O)[nH]c3c2)CC1 [Example 146, 5-[2-Chloro-6-[(4-methylpiperazin-1-yl)methyl]phenyl]-1,3-dihydrobenzimidazol-2-one] |
| 1580 | Cc1c(CN2CCCCC2)cccc1-c1ccc2[nH]c(=O)[nH]c2c1 [Example 147, 5-[2-Methyl-3-(1-piperidylmethyl)phenyl]-1,3-dihydrobenzimidazol-2-one] |
| 2000 | Cc1c(CN2CCOCC2)cccc1-c1ccc2[nH]c(=O)[nH]c2c1 [Example 148, 5-[2-Methyl-3-(morpholinomethyl)phenyl]-1,3-dihydrobenzimidazol-2-one] |
| 20 | Cc1c(CN2CCOC(C)(C)C2)cccc1-c1ccc2[nH]c(=O)[nH]c2c1 [Example 149, 5-[3-[(2,2-Dimethylmorpholin-4-yl)methyl]-2-methyl-phenyl]-1,3-dihydrobenzimidazol-2-one] |
| 200 | Cc1c(CN2CCSCC2)cccc1-c1ccc2[nH]c(=O)[nH]c2c1 [Example 154, 5-[2-Methyl-3-(thiomorpholinomethyl)phenyl]-1,3-dihydrobenzimidazol-2-one] |
| 316 | Cc1c(CN2CCN(C(=O)OC(C)(C)C)CC2)cccc1-c1ccc2[nH]c(=O)[nH]c2c1 [Example 155, tert-Butyl 4-[[2-methyl-3-(2-oxo-1,3-dihydrobenzimidazol-5-yl)phenyl]methyl]piperazine-1-carboxylate] |

| IC50 [nM] | SMILES |
| --- | --- |
| 6310 | Cc1c(CN2CCCC2)cccc1-c1ccc2[nH]c(=O)[nH]c2c1 [Example 156, 5-[2-Methyl-3-(pyrrolidin-1-ylmethyl)phenyl]-1,3-dihydrobenzimidazol-2-one] |
| 6310 | Cc1c(CN2CC(F)C2)cccc1-c1ccc2[nH]c(=O)[nH]c2c1 [Example 157, 5-[3-[(3-Fluoroazetidin-1-yl)methyl]-2-methyl-phenyl]-1,3-dihydrobenzimidazol-2-one] |
| 31.6 | C=Cc1cccc(Cl)c1-c1ccc2[nH]c(=O)[nH]c2c1 [Example 161, 5-(2-Chloro-6-vinyl-phenyl)-1,3-dihydrobenzimidazol-2-one] |
| 20 | O=c1[nH]c2ccc(-c3c(Cl)cccc3-c3ccccc3)cc2[nH]1 [Example 162, 5-(2-Chloro-6-phenyl-phenyl)-1,3-dihydrobenzimidazol-2-one] |
| 20 | O=c1[nH]c2ccc(-c3c(Cl)cccc3-c3ccc(F)cc3)cc2[nH]1 [Example 163, 5-[2-Chloro-6-(4-fluorophenyl)phenyl]-1,3-dihydrobenzimidazol-2-one] |
| 39.8 | N#Cc1ccc(-c2cccc(Cl)c2-c2ccc3[nH]c(=O)[nH]c3c2)cc1 [Example 164, 4-[3-Chloro-2-(2-oxo-1,3-dihydrobenzimidazol-5-yl)phenyl]benzonitrile] |
| 126 | O=c1[nH]c2ccc(-c3c(Cl)cccc3-c3cccnc3)cc2[nH]1 [Example 165, 5-[2-Chloro-6-(3-pyridyl)phenyl]-1,3-dihydrobenzimidazol-2-one] |
| 63.1 | O=c1[nH]c2ccc(-c3c(Cl)cccc3-c3cncc(F)c3)cc2[nH]1 [Example 166, 5-[2-Chloro-6-(5-fluoro-3-pyridyl)phenyl]-1,3-dihydrobenzimidazol-2-one] |
| 316 | O=c1[nH]c2ccc(-c3c(Cl)cccc3-c3ccc(F)nc3)cc2[nH]1 [Example 167, 5-[2-Chloro-6-(6-fluoro-3-pyridyl)phenyl]-1,3-dihydrobenzimidazol-2-one] |
| 398 | COc1cncc(-c2cccc(Cl)c2-c2ccc3[nH]c(=O)[nH]c3c2)c1 [Example 168, 5-[2-Chloro-6-(5-methoxy-3-pyridyl)phenyl]-1,3-dihydrobenzimidazol-2-one] |
| 251 | O=c1[nH]c2ccc(-c3c(Cl)cccc3-c3cncc(C(F)(F)F)c3)cc2[nH]1 [Example 169, 5-[2-Chloro-6-[5-(trifluoromethyl)-3-pyridyl]phenyl]-1,3-dihydrobenzimidazol-2-one] |
| 316 | O=c1[nH]c2ccc(-c3c(Cl)cccc3-c3ccncc3)cc2[nH]1 [Example 170, 5-[2-Chloro-6-(4-pyridyl)phenyl]-1,3-dihydrobenzimidazol-2-one] |
| 1000 | COc1cnccc1-c1cccc(Cl)c1-c1ccc2[nH]c(=O)[nH]c2c1 [Example 171, 5-[2-Chloro-6-(3-methoxy-4-pyridyl)phenyl]-1,3-dihydrobenzimidazol-2-one] |
| 2000 | COCCn1cc(-c2cccc(Cl)c2-c2ccc3[nH]c(=O)[nH]c3c2)cn1 [Example 172, 5-[2-Chloro-6-[1-(2-methoxyethyl)pyrazol-4-yl]phenyl]-1,3-dihydrobenzimidazol-2-one] |
| 398 | Cn1cc(-c2cccc(Cl)c2-c2ccc3[nH]c(=O)[nH]c3c2)cn1 [Example 173, 5-[2-Chloro-6-(1-methylpyrazol-4-yl)phenyl]-1,3-dihydrobenzimidazol-2-one] |

| SMILES | IC50 [nM] |
| --- | --- |
| Cc1c(CN2CC3CC(C2)O3)cccc1-c1ccc2[nH]c(=O)[nH]c2c1 [Example 158, 5-[2-Methyl-3-(6-oxa-3-azabicyclo[3;1;1]heptan-3-ylmethyl)phenyl]-1,3-dihydrobenzimidazol-2-one] | 6310 |
